Test results taken from PubChem BioAssay (NCI).
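Results reflect a 48-hour exposure of cells in 96-well plates to compound at five concentrations. At the GI50, growth is halved. TGI: total growth inhibition.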

Assays:
Experiment in all cases: DTP human tumour cell line panel, 48 h
RXF 393 renal = test system: RXF 393 renal
NCI/ADR-RES ovarian = test system: NCI/ADR-RES ovarian
MDA-MB-435 = test system: MDA-MB-435
SK-OV-3 ovarian = test system: SK-OV-3 ovarian
BT-549 breast = test system: BT-549 breast
OVCAR-5 ovarian = test system: OVCAR-5 ovarian
MDA-MB-231 breast = test system: MDA-MB-231 breast
SN12C renal = test system: SN12C renal
A498 renal = test system: A498 renal
HCC-2998 colon = test system: HCC-2998 colon
SF-539 CNS = test system: SF-539 CNS
SK-MEL-5 melanoma = test system: SK-MEL-5 melanoma
NCI-H226 lung = test system: NCI-H226 lung
ACHN renal = test system: ACHN renal
SNB-75 CNS = test system: SNB-75 CNS
MALME-3M melanoma = test system: MALME-3M melanoma
DU-145 prostate = test system: DU-145 prostate
COLO 205 colon = test system: COLO 205 colon
K-562 leukemia = test system: K-562 leukemia
U251 CNS = test system: U251 CNS
MOLT-4 leukemia = test system: MOLT-4 leukemia
SF-295 CNS = test system: SF-295 CNS
NCI-H522 lung = test system: NCI-H522 lung
UO-31 renal = test system: UO-31 renal
HT29 colon = test system: HT29 colon
786-0 renal = test system: 786-0 renal
UACC-62 melanoma = test system: UACC-62 melanoma
M14 melanoma = test system: M14 melanoma
EKVX NSCLC = test system: EKVX NSCLC
RPMI-8226 leukemia = test system: RPMI-8226 leukemia
OVCAR-4 ovarian = test system: OVCAR-4 ovarian
OVCAR-8 ovarian = test system: OVCAR-8 ovarian
SR leukemia = test system: SR leukemia
TK-10 renal = test system: TK-10 renal
MCF7 breast = test system: MCF7 breast
SK-MEL-28 melanoma = test system: SK-MEL-28 melanoma
UACC-257 melanoma = test system: UACC-257 melanoma
HOP-62 NSCLC = test system: HOP-62 NSCLC
SF-268 CNS = test system: SF-268 CNS
SK-MEL-2 melanoma = test system: SK-MEL-2 melanoma
HL-60(TB) leukemia = test system: HL-60(TB) leukemia
A549 NSCLC = test system: A549 NSCLC
HS 578T breast = test system: HS 578T breast
CCRF-CEM leukemia = test system: CCRF-CEM leukemia
HOP-92 NSCLC = test system: HOP-92 NSCLC
KM12 colon = test system: KM12 colon
HCT-15 colon = test system: HCT-15 colon
IGROV1 ovarian = test system: IGROV1 ovarian
LOX IMVI melanoma = test system: LOX IMVI melanoma
PC-3 prostate = test system: PC-3 prostate
CAKI-1 renal = test system: CAKI-1 renal
NCI-H460 lung = test system: NCI-H460 lung
SW-620 colon = test system: SW-620 colon

## Cc1[nH]c(C(=O)Nc2ccccc2OCc2cccc(C(=O)NC3CCCNC3)c2)c(Cl)c1Cl (centres undefined)
RXF 393 renal
  GI50: 1480 nM
  TGI: 3100 nM
NCI/ADR-RES ovarian
  GI50: 2960 nM
  TGI: 9880 nM
MDA-MB-435
  GI50: 1740 nM
  TGI: 3240 nM
SK-OV-3 ovarian
  GI50: 8910 nM
  TGI: 26900 nM
BT-549 breast
  GI50: 2630 nM
  TGI: 9750 nM
OVCAR-5 ovarian
  GI50: 1640 nM
  TGI: 3060 nM
MDA-MB-231 breast
  GI50: 1750 nM
  TGI: 3380 nM
SN12C renal
  GI50: 1900 nM
  TGI: 3720 nM
A498 renal
  GI50: 1800 nM
  TGI: 5590 nM
HCC-2998 colon
  GI50: 2010 nM
  TGI: 3730 nM
SF-539 CNS
  GI50: 1690 nM
  TGI: 3150 nM
SK-MEL-5 melanoma
  GI50: 1710 nM
  TGI: 3110 nM
NCI-H226 lung
  GI50: 2010 nM
  TGI: 5310 nM
ACHN renal
  GI50: 1660 nM
  TGI: 3110 nM

## Cc1ccc2c(c1)Oc1nc(N)c(C#N)c(N)c1C2Sc1ccc(F)cc1 (centres undefined)
RXF 393 renal
  GI50: 611 nM
  TGI: 1690 nM
MDA-MB-435
  GI50: 1260 nM
  TGI: 2670 nM
SK-OV-3 ovarian
  GI50: 1800 nM
  TGI: 3290 nM
SNB-75 CNS
  GI50: 956 nM
  TGI: 2330 nM
MALME-3M melanoma
  GI50: 992 nM
  TGI: 2340 nM
BT-549 breast
  GI50: 415 nM
  TGI: 1710 nM
DU-145 prostate
  GI50: 1480 nM
  TGI: 2820 nM
COLO 205 colon
  GI50: 1330 nM
  TGI: 2780 nM
K-562 leukemia
  GI50: 309 nM
  TGI: > 100000 nM
U251 CNS
  GI50: 1170 nM
  TGI: 2490 nM
MOLT-4 leukemia
  GI50: 306 nM
SF-295 CNS
  GI50: 1680 nM
  TGI: 3070 nM
NCI-H522 lung
  GI50: 785 nM
  TGI: 2100 nM
UO-31 renal
  GI50: 215 nM
  TGI: 1720 nM
HT29 colon
  GI50: 1820 nM
  TGI: 3430 nM
786-0 renal
  GI50: 1190 nM
  TGI: 2450 nM
UACC-62 melanoma
  GI50: 1500 nM
  TGI: 2870 nM
M14 melanoma
  GI50: 1440 nM
  TGI: 2850 nM
EKVX NSCLC
  GI50: 1220 nM
  TGI: 2470 nM
RPMI-8226 leukemia
  GI50: 448 nM
  TGI: > 100000 nM
A498 renal
  GI50: 1450 nM
  TGI: 2780 nM
HCC-2998 colon
  GI50: 1510 nM
  TGI: 2920 nM
OVCAR-4 ovarian
  GI50: 1450 nM
  TGI: 2780 nM
OVCAR-8 ovarian
  GI50: 1300 nM
  TGI: 2610 nM
SR leukemia
  GI50: 301 nM
  TGI: > 100000 nM
TK-10 renal
  GI50: 2230 nM
  TGI: 3700 nM
MCF7 breast
  GI50: 361 nM
  TGI: 1990 nM
SK-MEL-28 melanoma
  GI50: 1170 nM
  TGI: 2400 nM
UACC-257 melanoma
  GI50: 1290 nM
  TGI: 2580 nM
SF-539 CNS
  GI50: 1340 nM
  TGI: 2630 nM
HOP-62 NSCLC
  GI50: 1620 nM
  TGI: 3080 nM
SF-268 CNS
  GI50: 1230 nM
  TGI: 2520 nM
SK-MEL-2 melanoma
  GI50: 1300 nM
  TGI: 2600 nM
HL-60(TB) leukemia
  GI50: 242 nM
  TGI: 647 nM
A549 NSCLC
  GI50: 1550 nM
  TGI: 3010 nM
SK-MEL-5 melanoma
  GI50: 1570 nM
  TGI: 2950 nM
HS 578T breast
  GI50: 1020 nM
  TGI: 4220 nM
CCRF-CEM leukemia
  GI50: 201 nM
  TGI: > 100000 nM
NCI-H226 lung
  GI50: 1530 nM
  TGI: 4160 nM
HOP-92 NSCLC
  GI50: 1140 nM
  TGI: 2440 nM
KM12 colon
  GI50: 1480 nM
  TGI: 2830 nM
ACHN renal
  GI50: 1340 nM
  TGI: 2630 nM

## Cc1ccc(-c2cc3nc(C(Cl)Cl)nc(-c4ccco4)n3n2)cc1
HCT-15 colon
  GI50: 845 nM
  TGI: > 100000 nM
SK-OV-3 ovarian
  GI50: 3090 nM
  TGI: > 100000 nM
IGROV1 ovarian
  GI50: 2650 nM
  TGI: > 100000 nM
SNB-75 CNS
  GI50: 186 nM
  TGI: 1710 nM
LOX IMVI melanoma
  GI50: > 100000 nM
  TGI: > 100000 nM
MALME-3M melanoma
  GI50: > 100000 nM
  TGI: > 100000 nM
BT-549 breast
  GI50: > 100000 nM
  TGI: > 100000 nM
DU-145 prostate
  GI50: 404 nM
  TGI: 2350 nM
PC-3 prostate
  GI50: 506 nM
  TGI: 4490 nM
CAKI-1 renal
  GI50: 832 nM
  TGI: 4740 nM
MOLT-4 leukemia
  GI50: > 100000 nM
  TGI: > 100000 nM
NCI-H460 lung
  GI50: 352 nM
  TGI: 1470 nM
NCI-H522 lung
  GI50: > 100000 nM
  TGI: > 100000 nM
UO-31 renal
  GI50: 523 nM
  TGI: 3990 nM
HT29 colon
  GI50: 328 nM
  TGI: 1230 nM
786-0 renal
  GI50: 2030 nM
  TGI: > 100000 nM
MDA-MB-231 breast
  GI50: 289 nM
  TGI: 1850 nM
SN12C renal
  GI50: > 100000 nM
  TGI: > 100000 nM
SW-620 colon
  GI50: 583 nM
  TGI: > 100000 nM
M14 melanoma
  GI50: > 100000 nM
  TGI: > 100000 nM
RPMI-8226 leukemia
  GI50: 2380 nM
  TGI: > 100000 nM
HCC-2998 colon
  GI50: 321 nM
  TGI: 1400 nM
OVCAR-8 ovarian
  GI50: 604 nM
  TGI: > 100000 nM
SR leukemia
  GI50: > 100000 nM
  TGI: > 100000 nM
SF-539 CNS
  GI50: 927 nM
  TGI: 3330 nM
HOP-62 NSCLC
  GI50: 298 nM
  TGI: 3820 nM
SF-268 CNS
  GI50: 1650 nM
  TGI: > 100000 nM
HL-60(TB) leukemia
  GI50: 348 nM
  TGI: 3250 nM
SK-MEL-5 melanoma
  GI50: > 100000 nM
  TGI: > 100000 nM
CCRF-CEM leukemia
  GI50: > 100000 nM
  TGI: > 100000 nM
NCI-H226 lung
  GI50: > 100000 nM
  TGI: > 100000 nM
HOP-92 NSCLC
  GI50: 339 nM
  TGI: 2690 nM
KM12 colon
  GI50: 1810 nM
  TGI: 5520 nM
ACHN renal
  GI50: 273 nM
  TGI: 1360 nM
